Results reported in US5593970A, “Heterocyclic anthracycline analogs” (priority 1994, dated 1997).

Experiments:
Test in all cases: Soft agar colony formation disk diffusion assay
[1] = tested on: B16; format: cell-based, murine
How it was run: (§1)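 Read-out: zone of inhibition, disk edge to most proximal colony (>50 cells), measured by ocular micrometer at 40×. Two-layer agar, 10^4 to 2×10^5 cells per dish, drug on filter disk, 37° C., 5% CO2, 10-20 days.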

[2] = tested on: P388/ADR; format: cell-based, murine
How it was run: as §1

[3] = tested on: M5076; format: cell-based, murine
How it was run: as §1

[4] = tested on: LL; format: cell-based, murine
How it was run: as §1

[5] = tested on: P388; format: cell-based, murine
How it was run: as §1

[6] = tested on: HT29; format: cell-based, human
How it was run: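 Cells were plated at 10^4–2×10^5 cells per dish in a 0.4% Noble agar upper layer over 0.8% agar. The compound (DMSO/water solution) was applied on a 6.5 mm filter disk, and plates were incubated at 37 °C, 5% CO2 for 10–20 days. Anti-clonogenic activity was measured microscopically as the inhibition zone from the disk edge to the nearest colonies (>50 cells).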

Row | Compound | zone of inhibition ([1]; 10 μg/DISK) [Zone Units] | zone of inhibition ([1]; 100 μg/DISK) [Zone Units] | zone of inhibition ([2]; 10 μg/DISK) [Zone Units] | zone of inhibition ([2]; 100 μg/DISK) [Zone Units] | zone of inhibition ([3]; 10 μg/DISK) [Zone Units] | zone of inhibition ([3]; 100 μg/DISK) [Zone Units] | zone of inhibition ([4]; 10 μg/DISK) [Zone Units] | zone of inhibition ([4]; 100 μg/DISK) [Zone Units] | zone of inhibition ([5]; 10 μg/DISK) [Zone Units] | zone of inhibition ([5]; 100 μg/DISK) [Zone Units] | zone of inhibition ([6]; 10 μg/DISK) [Zone Units] | zone of inhibition ([6]; 100 μg/DISK) [Zone Units]
1 | COC(=O)[C@@H]1CC2=C(C(=O)c3c(cc4ccccc4c3O)C2=O)[C@@H](O[C@H]2C[C@H](NC(=O)C(F)(F)F)[C@H](O)[C@H](C)O2)O1 [BCH-691, (1'S,1R,3S)-Methyl-{11-hydroxy-1-(2',3',6'-trideoxy-3'-trifluoroacetamido-4'-hydroxy-L-lyxoheoxpyranose)-5,12-dioxo-3,4,5,12-tetrahydroanthraceno[2,3-c]pyran-3-yl}formate] | 114.0 ± 30.2 | 250.0 ± 58.0 | 50.0 ± 10.0 | 98.0 ± 15.0 | 120.0 ± 28.8 | 220.0 ± 50.8 | 50.6 ± 25.5 | 180.0 ± 120.0 | 100.5 ± 50.0 | 200.2 ± 50.0 | 137.0 ± 21.2 | 198.0 ± 21.2
2 | Methyl(11-hydroxy-5,12-dioxo-3,4,5,12-tetrahydroanthraceno[2,3-c]pyran-3-yl)ketone and Methyl(5-hydroxy-5,12-dioxo-3,4,5,12-tetrahydroanthraceno[2,3-c]pyran-3-yl)ketone [BCH-687] | 34.6 ± 3.6 | 70.1 ± 13.0 | 0 | 153.6 ± 30.6 | 0 | 410.8 ± 46.5 | 62.8 ± 30.7 | 182.6 ± 35.2 | 81.3 ± 30.0 | 183.0 ± 81.0 | 61.0 ± 12.2 | 150.4 ± 25.3
